Reference: US20040192640A1, “Use of sucralfate for the treatment of cervical erosion” (priority 2004, published 2004)

Key:
[1] = test system: duodenal ulcer; conditions: oral dose of 1 g four times daily, for 4-8 weeks; cited from earlier work
[2] = test system: NSAID-induced ulceration; conditions: cited from earlier work
[3] = test system: cervical erosion; assay: Clinical test of topical intravaginal sucralfate gel for cervical erosion (colposcopic examination, signs and symptoms); assay type: in vivo, women; conditions: after six weeks of treatment (so in the source); both formulations together
Excerpt: Based on the observed colposcopic picture of the situation and on the seriousness of the possible accompanying inflammation state the patients under test have been classified according to a conventional classification of the cervical pathology, according to the following grade scheme.
Grade I: simple cervicitis; presence of mosaic-shaped lesions and ectopia; reduced leuconrhea and absence of dyspareunia (abnormal pain during sexual intercourse);
Grade II: cervicitis with extended erosion of the portio (30% of the surface); presence of altered epithelium; occasional blood discharge and occasional dyspareunia;
Grade III: cervicitis with extended erosion of the portio (50% of the surface); presence of ectopia; frequent blood discharge; leucorrhea and dyspareunia.
The 18 women, after final diagnosis, were divided into two test groups of nine patients each, in order to evaluate the effectiveness of the treatment according to the invention in two different formulations. The first formulation, continuing sucralfate at a concentration of 25% by weight as well as polycarbophil as a mucoadhesive/bioadhesive ingredient, corresponds to the preparation referred to above as Formulation 2, while the second formulation under test containing sucralfate at a concentration of 12.5% by weight as well as polycarbophil, corresponds to the Formulation 3. […]

β-D-fructofuranosyl-α-D-glucopyranoside octakis(hydrogen sulfate) aluminium complex [sucralfate]
Clinical effectiveness (cases) [1]: 75 % of cases | Effectiveness in NSAID-induced ulceration, duodenal localizations ([2]; duodenal localizations): effective | Effect in NSAID-induced ulceration, gastric lesions ([2]; when gastric lesions are present): only a symptomatic and non-reparative effect | Patients considered on complete recovery [3]: 16 patients out of 18
